Reference: patent US11457629B2, “Heteroarylphenylaminoquinolines and analogues” (Bayer Aktiengesellschaft, priority 2017, dated 2022)

experiment: Log P by HPLC on reversed phase columns, method [a] (acidic range, 0.1% formic acid); settings: LogP, method [a] / Method A: LC-UV, acidic range
Procedure: In the following, measurement of Log P values was performed according to EEC directive 79/831 Annex V.A8 by HPLC (High Performance Liquid Chromatography) on reversed phase columns with the following methods: • ^[a]
If more than one Log P value is available within the same method, all the values are given and separated by “+”.
Calibration was done with straight-chain alkan2-ones (with 3 to 16 carbon atoms) with known Log P values (measurement of Log P values using retention times with linear interpolation between successive alkanones).

| SMILES | chromatographic logP |
| --- | --- |
| COC(=O)c1ccn(-c2ccccc2Nc2cnc3ccccc3c2)n1 [Example I-062, methyl 1-[2-(3-quinolylamino)phenyl]pyrazole-3-carboxylate] | 2.16 |
| Cn1nccc1-c1c(F)cccc1Br [IXa-01, 5-(2-bromo-6-fluorophenyl)-1-methyl-1H-pyrazole] | 2.4 |
| CC(C)n1nccc1-c1c(F)cccc1Br [IXa-02, 5-(2-bromo-6-fluorophenyl)-1-isopropyl-1H-pyrazole] | 3.09 |
| CC(C)(C)n1nccc1-c1c(F)cccc1Br [IXa-03, 5-(2-bromo-6-fluorophenyl)-1-tert-butyl-1H-pyrazole] | 3.61 |
| CCn1nccc1-c1c(F)cccc1Br [IXa-04, 5-(2-bromo-6-fluorophenyl)-1-ethyl-1H-pyrazole] | 2.71 |
| Fc1cccc(Br)c1-c1ccnn1CCc1ccccc1 [IXa-05, 5-(2-bromo-6-fluorophenyl)-1-(2-phenylethyl)-1H-pyrazole] | 3.83 |
| OCc1ccnn1-c1c(F)cccc1Br [IXb-01, [1-(2-bromo-6-fluorophenyl)-1H-pyrazol-5-yl]methanol] | 1.27 |
| CC(C)(C)[Si](C)(C)OCc1ccnn1-c1c(F)cccc1Br [IXb-02, 1-(2-bromo-6-fluorophenyl)-5-({[tert-butyl(dimethyl)silyl]oxy}methyl)-1H-pyrazole] | 4.96 |
| COC(=O)c1ccnn1-c1c(F)cccc1Br [IXb-03, methyl 1-(2-bromo-6-fluorophenyl)-1H-pyrazole-5-carboxylate] | 2.53 |
| CC(C)(C)[Si](C)(C)OCc1ccnn1-c1c(N)cccc1F [IXb-04, 2-[5-({[tert-butyl(dimethyl)silyl]oxy}methyl)-1H-pyrazol-1-yl]-3-fluoroaniline] | 4.1 |
| Fc1cccc2cc(Nc3ccccc3Br)cnc12 [N-(2-bromophenyl)-8-fluoro-quinolin-3-amine] | 3.27 |
| CC1(C)OB(c2ccccc2Nc2cnc3c(F)cccc3c2)OC1(C)C [VI-01, 8-fluoro-N-[2-(4,4,5,5-tetramethyl-1,3,2-dioxaborolan-2-yl)phenyl]quinolin-3-amine] | 4.87 |
| CC1(C)OB(c2ccccc2Nc2cnc3ccccc3c2)OC1(C)C [VI-02, N-[2-(4,4,5,5-tetramethyl-1,3,2-dioxaborolan-2-yl)phenyl]quinolin-3-amine] | 4.29 |
| CC1(C)OB(c2ccccc2Cc2cnc3ccccc3c2)OC1(C)C [VI-03, 3-[2-(4,4,5,5-tetramethyl-1,3,2-dioxaborolan-2-yl)benzyl]quinoline] | 3.39 |
| CC(C)(C)OC(=O)N(c1cnc2ccccc2c1)c1ccccc1-n1nccc1C(=O)O [XX-01, 1-{2-[(tert-butoxycarbonyl)(quinolin-3-yl)amino]phenyl}-1H-pyrazole-5-carboxylic acid] | 2.42 |
| CC(C)(C)OC(=O)N(c1cnc2ccccc2c1)c1cccc(F)c1-n1nccc1C(=O)O [XX-02, 1-{2-[(tert-butoxycarbonyl)(quinolin-3-yl)amino]-6-fluorophenyl}-1H-pyrazole-5-carboxylic acid] | 2.62 |
| COC(=O)c1ccnn1-c1c(F)cccc1N(C(=O)OC(C)(C)C)c1cnc2ccccc2c1 [XX-03, methyl 1-{2-[(tert-butoxycarbonyl)(quinolin-3-yl)amino]-6-fluorophenyl}-1H-pyrazole-5-carboxylate] | 3.36 |
| C=C(C)c1ccnn1-c1ccccc1N(C(=O)OC(C)(C)C)c1cnc2ccccc2c1 [XX-04, tert-butyl {2-[5-(prop-1-en-2-yl)-1H-pyrazol-1-yl]phenyl}quinolin-3-ylcarbamate] | 3.67 |
| COC(=O)c1ccnn1-c1ccccc1N(C(=O)OC(C)(C)C)c1cnc2ccccc2c1 [XX-05, Methyl 1-(2-(tert-butoxycarbonyl(quinolin-3-yl)amino)phenyl)-1H-pyrazole-5-carboxylate] | 3.19 |

same assay, conditions: logP, HPLC on reversed phase columns, method [a]: acidic range

| SMILES | chromatographic logP |
| --- | --- |
| COC(=O)c1ccn(-c2ccccc2Nc2cnc3ccccc3c2)n1 [Example I-062, methyl 1-[2-(3-quinolylamino)phenyl]pyrazole-3-carboxylate] | 2.16 |
